The subject of one experiment is dissociated DRG neurons. The experiment is described as follows: FluoVolt membrane potential imaging of dissociated DRG neurons. It counts as cell-based, mouse. To be noted: 1 day NGF followed by adenosine treatment; capsaicin stimulation. An excerpt: DRG were isolated from mice using a modified version of the previously described protocol (Perner C, et al. (2021) STAR Protoc. 2:100333). Briefly, mice were euthanized and dosed in 70% ethanol to prevent fur contamination. Mice were positioned prone, and an incision was made along the spine from the neck to the base of the tail. Under a dissecting microscope, the surrounding soft tissue of the spinal column was removed from the dorsal side by Friedman-Pearson Rongeurs (Fine Science Tools, Foster City, CA, Cat #16021-14) from the mid thoracic region to the lumbosacral joint. The vertebral bone surrounding the DRG was gently crushed and removed with rongeurs exposing the spinal cord. The DRG were carefully extracted near the foramen between the vertebral levels. L3 and L4 DRG were collected for analyses. Dissected DRG were placed directly into ice-cold DMEM-F12 medium (ThermoFisher, Cat #11320033) for in vitro culture, Trizol (ThermoFisher, Cat #15596018) for PCR analyses, or 4% PFA for histology. For cell culture experiments, collected DRG were digested in digestion solution comprised of collagenase type II (Worthington, Lakewood, NJ, Cat #LS004176) and dispase (1.5 mg/mL each) dissolved in DMEM/F12. […]
DRG neuron potential changes were evaluated with FluoVolt, a voltage sensitive indicator dye (ThermoFisher, Cat #F10488). […]

The test system of a further experiment is fractured tibiae. The experiment is described as follows: MicroCT of fractured tibiae (fracture healing). To be noted: 21 days post-fracture. It counts as in vivo, mouse. As for the experimental part:
In all experiments, 12-week-old to 16-week-old C57BL/6J male mice (Jackson Laboratory, Bar Harbor, ME) and Lepr-cre; tdTomato reporter mice were used. The average mouse weight was 25 grams and mice were housed in groups of four to five, and kept on a 12-hr light-dark cycle with lights off at 1800 hr. All animals had ad libitum access to chow (PMI LabDiet 5001) and water. Fracture surgeries were performed as previously described (Zeng Y, et al. (2020) Adv Mater. 32:e1906022). Animals were anesthetized by isoflurane and injected with 1 mg/kg buprenorphine SR-LAB (ZooPharm, Laramie, WY). Each mouse was then placed in a supine position with the right tibia disinfected. After skin incision and reflection, proximal to the right knee, a 0.7-mm pin was inserted from the tibial plateau through the medullary cavity to stabilize the tibia, and a cut was made at the tibial midshaft to induce a transverse fracture. Bupivacaine (0.5%; Hospira, Lake Forest, IL) at ˜1 mg/kg body weight was applied at the surgical site following wound closure using 2 reflex clips (5 mm). For animals treated with control and adenosine-loaded macroporous hydrogels, macroporous hydrogels measuring approximately 5 mm (length)×3 mm (width)×1 mm (thick) containing either 1.05±0.1 mg adenosine (ADO) or no adenosine (CTL) were implanted adjacent to the fractures immediately. […] The animals were treated with the macroporous hydrogels with or without adenosine immediately following the fracture. In the cohorts for weight bearing and open field activity measurements, 1 animal from the control group and 1 animal from the treatment group were euthanized due to shift of the inserted pin following fracture.
Tibiae were collected, fixed in 4% PFA at 4° C. for 1 day, and rinsed with PBS. The fixed samples were placed in 50-mL centrifuge tubes with styrofoam spacers and loaded into a microcomputed tomography (microCT) scanner (vivaCT 80, Scanco Medical, Wayne, PA). The samples were scanned at 55 keV at a pixel resolution of 10.4 μm. The reconstruction of the images was performed using microCT Evaluation Program V6.6 (Scanco Medical), followed by generation of radiographs and 3D models using microCT Ray V4.0 (Scanco Medical). Total volume (TV), bone volume (BV) per total volume (TV) (% BV/TV), and bone mineral density (BMD) was quantified using the phantom as a reference based on 100 contiguous slices.

Consider `Nc1ncnc2c1ncn2[C@@H]1O[C@H](CO)[C@@H](O)[C@H]1O` [adenosine], for which the “NGF-induced increase in membrane potential (FluoVolt)” value with dissociated DRG neurons is on record as “attenuated”. In the experiment on fractured tibiae, the “callus size (microCT)” value is given as “smaller calluses”, the “cortical bone bridging (microCT)” value is given as “improved bridging of cortical bone with less trabecular bone” and the “total volume (TV) of regenerating calluses vs control” value was “lower”. Moreover, in the experiment on fractured tibiae (local delivery), the “fracture healing (microCT images and radiographs)” value is “accelerated”.

For the origin of these results see US20250152616A1, “COMPOSITIONS FOR AND METHODS OF TREATING, PREVENTING, AND/OR MITIGATING PAIN” (Duke University, priority 2022, published 2025).
